# Laboratory results as given in paper PMC7792806, “Development of Second Generation Activity-Based Chemical Probes for Sirtuins” (Molecules, 2020).
# Read-outs that look alike come from different tables or passages of the source.
# Key:
# [1] = system: HEK293 cells overexpressing SIRT5; assay: Cellular NAD+ measurement, NAD+ cycling assay; type: cell-based, human; conditions: 1 mM for 6 h
# Experimental: HEK293 cells overexpressing SIRT5 were subjected to a treatment known to increase the cellular NAD^+ level.
# To the cell pellet was added 30 μL of ice-cold 7% perchloric acid; then, the sample was vortexed for 30 s and then sonicated on ice for 5 min. The vortex–sonication cycle was repeated three times. Then, the sample was centrifuged for 3 min at room temperature. Clear supernatant was taken out and neutralized to pH 7 with 3 M NaOH and 1 M phosphate buffer (pH 9). NAD^+ level was then measured using NAD^+ cycling assay as described previously [14].
# [2] = molecular target: T1, SIRT5 (Homo sapiens, UniProt Q9NXA8); assay: In-cell labeling of SIRT5 with probe 2B, cellular imaging; type: cell-based; conditions: 1 mM NR for 6 h, then 50 μM probe 2B, 15 min irradiation at 365 nm; compared with control cells
# T1 construct: endogenous in cells; host or cells: HEK293
# T1 sequence (Q9NXA8 37-310): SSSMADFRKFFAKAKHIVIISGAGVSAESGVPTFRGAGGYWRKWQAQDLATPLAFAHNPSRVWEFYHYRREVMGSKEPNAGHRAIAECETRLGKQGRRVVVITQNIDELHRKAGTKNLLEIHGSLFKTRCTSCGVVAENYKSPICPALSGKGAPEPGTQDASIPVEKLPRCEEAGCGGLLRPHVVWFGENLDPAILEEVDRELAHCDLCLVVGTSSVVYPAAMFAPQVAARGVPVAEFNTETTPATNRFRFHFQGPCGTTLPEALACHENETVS
# Experimental: HEK293 cells overexpressing SIRT5 were subjected to a treatment known to increase the cellular NAD^+ level. […] Then, the cells were incubated with 50 μM probe 2B and irradiated at 365 nm for 15 min on ice. Subsequently, the cells were treated with freshly prepared “click” staining mix as described in “Materials and Methods”. After the “click” reaction, cells were incubated with anti-SIRT5 antibody before the images were acquired.
# Cells were seeded in 35 mm glass-bottom dishes (MatTek, Ashland, MA, USA) and grew until 70 to 80% confluence. Then, the cells were incubated in the presence or absence of 1 mM NR for 6 h before the medium was discarded. The cells were gently rinsed with fresh growth medium three times. Subsequently, the cells were incubated with 50 μM probe 2B for 1 h before the culture dishes were placed on ice. The cells were irradiated at 365 nm in cold room for 15 min followed by fixation with 4% paraformaldehyde and permeabilization with 0.2% Triton X-100 in PBS. Then, the cells were treated with freshly prepared “click” staining mix (10 μM TAMRA-azide, 1 mM CuSO4 and 1 mM TBTA in 2 mL of deionized water), followed by the addition of 2 mM TCEP. […]
# Fluorescence microscopy was carried out on a Leica TCS SP5 confocal microscope (Leica Microsystems, Mannheim, Germany). […] Images were acquired and processed using Leica Application Suite Advanced Fluorescence (LAS AF) software.
# [3] = molecular target: T2, SIRT1 (Homo sapiens, UniProt Q96EB6); assay: Sirtuin inhibition assay (HPLC), SIRT1; type: biochemical; conditions: ratio of IC50s
# T2 construct: Plasmids of SIRT1 (full length); made in house
# T2 sequence (Q96EB6 1-747): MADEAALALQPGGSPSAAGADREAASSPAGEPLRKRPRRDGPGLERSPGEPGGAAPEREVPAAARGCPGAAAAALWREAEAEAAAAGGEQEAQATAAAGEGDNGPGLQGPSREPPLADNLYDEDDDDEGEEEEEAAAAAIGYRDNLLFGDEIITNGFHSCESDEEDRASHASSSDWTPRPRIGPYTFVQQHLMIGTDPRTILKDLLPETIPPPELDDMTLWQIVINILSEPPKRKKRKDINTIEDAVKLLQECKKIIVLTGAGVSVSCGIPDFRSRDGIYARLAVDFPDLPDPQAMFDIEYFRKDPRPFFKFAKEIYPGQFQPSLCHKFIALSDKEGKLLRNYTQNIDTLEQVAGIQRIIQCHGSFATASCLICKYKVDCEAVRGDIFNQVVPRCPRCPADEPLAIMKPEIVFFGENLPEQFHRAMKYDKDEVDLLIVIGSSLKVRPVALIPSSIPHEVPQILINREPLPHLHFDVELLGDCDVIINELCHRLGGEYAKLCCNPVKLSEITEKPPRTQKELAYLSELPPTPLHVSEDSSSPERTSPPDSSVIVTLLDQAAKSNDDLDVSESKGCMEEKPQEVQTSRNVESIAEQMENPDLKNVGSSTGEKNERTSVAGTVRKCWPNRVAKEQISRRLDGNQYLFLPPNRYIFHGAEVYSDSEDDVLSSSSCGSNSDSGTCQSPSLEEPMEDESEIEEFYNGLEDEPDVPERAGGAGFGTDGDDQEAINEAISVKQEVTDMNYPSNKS
# Experimental: (§1) Plasmids of SIRT1 (full length), SIRT2 (38-356), SIRT3 (102-399), and SIRT5 (34-302) were generous gifts from Dr. Hening Lin (Cornell University, Ithaca, NY, USA). SIRT6 was a gift from Cheryl Arrowsmith (Addgene plasmid #28271). The proteins were expressed and purified according to previously published protocols. The identity of the protein was confirmed by tryptic digestion followed by LC-MS/MS analysis performed at the Vermont Genetic Network (VGN) Proteomics Facility. Protein concentrations were determined by Bradford assay (Thermo Fisher Scientific, Rockford, IL, USA).
# (§2) A typical reaction contained 500 μM NAD^+ and 500 μM peptide substrate (H3K9Ac for SIRT2, SIRT3 and SIRT6, p53K382Ac for SIRT1 and SIRT5) of varying concentrations of a small molecule probe in 100 mM phosphate buffer pH 7.5. The reactions were initiated by the addition of 10 μM of sirtuin and were incubated at 37 °C before being quenched by 8 μL of 10% TFA. The incubation time was controlled so that the conversion of substrate was less than 15%. The samples were then injected on an HPLC fitted to a Macherey-Nagel Nucleosil C18 column. NAD^+, NAM and AADPR (acetyl-ADP-ribose) peaks were resolved using a gradient of 0 to 20% methanol in 20 mM ammonium acetate. Chromatograms were analyzed at 260 nm. Reactions were quantified by integrating areas of peaks corresponding to NAD^+ and AADPR. Rates were plotted as a function of small molecule probe concentration, and points were fitted to the following equation:ν(%) = ν0(%) − [ν0(%)(10^x)/(10^x + IC50)](1) where ν(%) represents the turnover rate expressed as percent enzymatic activity remaining, and ν0(%) represents the uninhibited turnover rate expressed as an enzymatic activity of 100%. The variable x represents the log[probe] in nanomolar. IC50 values were derived from this equation.
# [4] = molecular target: T3, SIRT3 (Homo sapiens, UniProt Q9NTG7); assay: Sirtuin inhibition assay (HPLC), SIRT3; type: biochemical; conditions: ratio of IC50s
# T3 construct: SIRT3 (102-399); made in house
# T3 sequence (Q9NTG7 102-399): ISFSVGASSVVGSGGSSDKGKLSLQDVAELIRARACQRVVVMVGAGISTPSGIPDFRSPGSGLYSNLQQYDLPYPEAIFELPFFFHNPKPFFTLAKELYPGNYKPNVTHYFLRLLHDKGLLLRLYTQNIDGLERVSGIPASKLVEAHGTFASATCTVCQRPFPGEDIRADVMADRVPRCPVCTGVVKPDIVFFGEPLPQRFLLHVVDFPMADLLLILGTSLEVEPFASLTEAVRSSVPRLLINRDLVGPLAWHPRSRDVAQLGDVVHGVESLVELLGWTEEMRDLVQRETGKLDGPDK
# Experimental: as §1, §2
# [5] = molecular target: T4, SIRT2 (Homo sapiens, UniProt Q8IXJ6); assay: Photoaffinity labeling of recombinant SIRT2, in-gel fluorescence; type: biochemical
# T4 construct: SIRT2 (38-356); made in house
# T4 sequence (Q8IXJ6 38-356): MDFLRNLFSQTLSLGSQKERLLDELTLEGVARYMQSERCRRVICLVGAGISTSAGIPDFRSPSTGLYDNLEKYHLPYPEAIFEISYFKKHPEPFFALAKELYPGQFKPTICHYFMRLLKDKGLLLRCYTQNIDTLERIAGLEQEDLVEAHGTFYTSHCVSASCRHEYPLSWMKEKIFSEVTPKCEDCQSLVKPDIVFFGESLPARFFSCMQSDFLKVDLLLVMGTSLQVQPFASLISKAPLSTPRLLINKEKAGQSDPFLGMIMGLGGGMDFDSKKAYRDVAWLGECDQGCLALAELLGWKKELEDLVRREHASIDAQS
# Experimental: (§3) The improved inhibitory effects of the 2nd generation ABPs prompted us to evaluate the labeling efficiency of these new probes. We first compared the abilities of benzophenone-based probe 1A and diazirine-based probe 2A to label recombinant SIRT2. The enzyme was incubated with NAD^+ and the probe, and then irradiated at 365 nm for 1 h. Subsequently, the sample was conjugated to TAMRA-azide via Cu(I)-catalyzed “click” reaction. The sample was resolved by SDS-PAGE and detected by in-gel fluorescence scanning.
# Figure 3 Comparison of labeling efficiencies of probes 1A and 2A. (A) Concentration-dependent labeling of SIRT2. SIRT2 (10 μM) was incubated with 500 μM NAD^+ and indicated concentrations of probe 1A or 2A in 100 mM phosphate buffer pH 7.5. The samples were incubated at 37 °C for 10 min, subjected to UV irradiation for 1 h, and then “click” conjugated to TAMRA-azide as described in “Materials and Methods”; (B) and (C) Time-dependent labeling of SIRT2 by probe 2A. The labeling reached plateau within 20 min.
# A typical labeling experiment was performed as follows: in a 0.7 mL Eppendorf tube, purified recombinant human sirtuin (10 μM) was incubated with NAD^+ (500 μM) and activity-based probe at 37 °C for 10 min. […] Then, destained gel was analyzed with in-gel fluorescence scanning using a Biorad ChemiDoc MP imager (excitation 532 nm, 580 nm cut-off filter and 30 nm band-pass). […]
# [6] = system: SIRT1, SIRT2, SIRT3, and SIRT6; assay: Labeling of individual recombinant sirtuins, in-gel fluorescence; type: biochemical, human; conditions: Figure S1
# Experimental: as §3
# A typical labeling experiment was performed as follows: in a 0.7 mL Eppendorf tube, purified recombinant human sirtuin (10 μM) was incubated with NAD^+ (500 μM) and activity-based probe at 37 °C for 10 min. The sample was transferred to a clear-bottom 96-well plate, placed on ice, and irradiated at 365 nm with a UV-lamp in a cold room. Subsequently, ingredients of the “click-chemistry” including azide-fluor 545, CuSO4, reducing agent (tris(2-carboxyethyl)phosphine, TCEP) and stabilizing agent (tris[(1-benzyl-1H-1,2,3-triazol-4-yl)methyl]amine, TBTA) were added, and the sample was gently agitated at 250 rpm on a microshaker at room temperature for 30 min. Then, the sample was resolved by SDS-PAGE. […] Then, destained gel was analyzed with in-gel fluorescence scanning using a Biorad ChemiDoc MP imager (excitation 532 nm, 580 nm cut-off filter and 30 nm band-pass). […]
# [7] = system: SIRT1; assay: Acetylation level of p53 lysine 382 in cells; type: cell-based; conditions: Figure S3
# [8] = molecular target: T4, SIRT2; parameters: method as in PMID 29385333; conditions: UV irradiation; cited from earlier work
# [9] = system: SIRT1; parameters: method as in PMID 29385333; conditions: cited from earlier work
compound,measurement,setting,value
"NC(=O)c1ccc[n+]([C@@H]2O[C@H](CO)[C@@H](O)[C@H]2O)c1 [NR, Nicotinamide riboside]",increase of cellular NAD+ concentration,[1],170%
same,labeling intensity of SIRT5 by probe 2B in cells,[2],increased labeling intensity
C#CCCCC1(CCC(=O)N[C@@H](CCCCNC(C)=S)C(=O)N[C@@H](C)C(=O)N[C@@H](C)C(=O)OC)N=N1 [Probe 2A],increased inhibition of SIRT1 compared with probe 1A,[3],3 fold
same,increased inhibition of SIRT3 compared with probe 1A,[4],2 fold
same,labeling intensity of SIRT2,"[5]; 10 μM SIRT2, 500 μM NAD+, 1 h irradiation at 365 nm, all concentrations examined",more intensively than probe 1A
same,irradiation time to saturation of SIRT2 labeling,[5]; UV irradiation at 365 nm,≤ 20 min
same,labeling of recombinant sirtuins,[6],"labeled SIRT1, SIRT2, SIRT3, and SIRT6 to different extents in dose-dependent manners"
same,"acetylation level of p53 lysine 382, combined with TSA",[7],increase the acetylation level of p53 lysine 382
C#CCOc1ccc(C(=O)c2ccc(C(=O)N[C@@H](CCCCNC(C)=S)C(=O)N[C@@H](C)C(=O)N[C@@H](C)C(=O)OC)cc2)cc1 [Probe 1A],irradiation time to plateau of SIRT2 labeling,[8],~60 min
same,"acetylation level of p53 lysine 382, combined with TSA",[9],enhance the acetylation level of p53 lysine 382
